Reference: patent publication US7498421B2, “Degradation fragments” (Medical Research Council, priority 2001, dated 2009)

Columns and labels:
[1] = Heat stability judged by HPLC; conditions: 60° C. for 2 h
[2] = Light sensitivity of purified fractions (sunlight, HPLC / 1H NMR); assay type: physicochemical; conditions: sunlight for 90 min
Method: The chloroform extract was dissolved in 50% (v/v) aqueous and purified by HPLC. Experiments were conducted so as to exclude light from samples. Hypersil reversed-phase C18 (250×7 mm) or Spherisorb ODS (2) reversed-phase columns (250×4.6 mm) were equilibrated with 30% (v/v) aqueous acetonitrile at a flow rate pf 2 mL min^−1 and 1 mL min^−1, respectively. Elution was performed using 30% to 36% aqueous acetonitrile linear gradient at the same flow rates over 8 min. Fractions were monitored at 320 nm and collected manually. The fractions were freeze dried and stored at −80° C. for further analyses. Each fraction was re-dissolved in 50% (v/v) aqueous acetonitrile, re-injected and re-purified using the same conditions to remove impurities from other fractions. To investigate the light sensitivity of the compounds, purified fractions were exposed to sunlight for 90 min after dissolving 50% (v/v) aqueous and analysed by HLPC.

porcine carotid artery = assay: Oxygen consumption of porcine carotid artery rings (Clark oxygen electrode); conditions: concentration of 4-methyl-3-vinylmaleimide not determined
Method: Porcine carotid artery were collected from an abattoir within 30 minutes of death, rinsed and immersed in PSS at 4° C., and immediately transported to the laboratory. Arteries were then trimmed of excess connective tissue and adventitia to be stored in PSS at 4° C. until use. The PSS was changed every 12 hours and the vessels were kept for up to 4 days. The PSS contained the following: 118 mmol/L sodium chloride, 25 mmol/L sodium hydrogen carbonate, 5.76 mmol/L potassium chloride, 2.5 mmol/L calcium chloride, 1.2 mmol/L magnesium sulphate, 0.5 mmol/L monobasic sodium phosphate, and 11.1 mmol/L glucose. The solution was oxygenated by bubbling with 95% oxygen and 5% carbon dioxide to maintain a pH of 7.4.
The rate of the oxygen consumption was determined using a Hansatech Instruments (Norfolk, United Kingdom) Clark oxygen electrode. Carotid artery rings approximately 0.2 cm long were vigorously rubbed to remove the endothelial cells and were added to the water-jacketed chambers containing PSS at 37° C. The rates of oxygen consumption were measured before and after the addition of crude mixture of the BR oxidative degradation products (final concentration 1 mg/mL of PSS), CSFSAH (final dilution 1/30) or 4-methyl-3-vinylmaleimide (purified on HPLC, freeze-dried and then re-dissolved in PSS). […]

[3] = test system: porcine carotid artery rings; assay: Isometric force measurement on porcine carotid artery rings
Method: Isometric force measurement were performed on porcine carotid artery rings to assess functional parameters during exposure to various compounds. The methods used were those used by J F Clark et al., J. Vasc. Res., 1995, 32. 24-30. KCl induced contraction is used as maximal isometric tension generation and results are reported as percentage of KCl maxima obtained for each carotid.

| heat stability [1] | intensity of HPLC peaks after exposure to sunlight [2] | 1H NMR analysis after sunlight exposure [2] | SMILES | stimulation of oxygen consumption (in words) (porcine carotid artery) | effect of pre-treatment on tension development induced by ox-BR and CSF-SAH [3] |
| --- | --- | --- | --- | --- | --- |
| relatively heat-stable | significantly decreased | – | C=CC1=C(C)C(=O)NC1=O [4-methyl-3-vinylmaleimide] | stimulated oxygen consumption | – |
| – | – | – | CC(CCc1ccc(O)cc1)NCCc1ccc(O)c(O)c1 (centres unmarked) [dobutamine] | – | abrogated |
| – | significantly decreased | degradation to a number of products | C=CC1=C(C)C(=O)NC1=CC(N)=O [Box A, 4-methyl-5-oxo-3-vinyl-(1,5-dihydropyrrol-2-ylidene)acetamide] | – | – |
| – | significantly decreased | degradation to a number of products | C=CC1=C(C)C(=CC(N)=O)NC1=O [Box B, 3-methyl-5-oxo-4-vinyl-(1,5-dihydropyrrol-2-ylidene)acetamide] | – | – |
